Laboratory results as given in article PMC6892925, “Development of Novel Silyl Cyanocinnamic Acid Derivatives as Metabolic Plasticity Inhibitors for Cancer Treatment” (Scientific Reports, 2019).

What was measured:
[1] = tested on: MCT1 expressing WiDr cell line; assay: Seahorse XFe96 mitochondrial stress test (OCR); type: cell-based, human; settings: 30 µM, vs DMSO control
Method: (§1) To assess mitochondrial stress, four parameters including maximal respiration, proton leak, ATP production, and spare respiratory capacity were measured. ATP production via OxPhos is dependent on mitochondrial integrity and can be measured directly via the oxygen consumption rate (OCR). Time-course OCR plots from WiDr and MDA-MB-231 cells were used to calculate 2a and 2b treatment-induced changes in specified parameters following the addition of various mitochondrial targeting agents (Fig. 5A,B). […] Spare respiratory capacity is a value that is not directly linked to mitochondrial damage but represents the cells ability to respond to rapid ATP demands.
(§2) 20,000 cells/well were plated in 96-well Seahorse plates (Agilent, part no. 101085-004) and incubated 16–24 hours at 37 °C at 5% CO2. Flux pack sensors (Agilent, part no. 102416-100) were hydrated with XF calibrant solution (Agilent, part no. 100840-000) overnight at 37 °C in a non-CO2 incubator. The serum free assay media was prepared from Seahorse base medium (Agilent, part no. 102353-100) enriched with glutamine (1 mM) and sodium pyruvate (1 mM). The pH of the media was adjusted to 7.4. For glycolysis stress test the serum free assay media was used. For the mitochondrial stress test glucose (10 mM) was added to make an enriched serum free assay media. For both stress tests an 8X stock concentration of test compounds in their respective media was prepared for microplate injections in port A. Stock solutions of glucose (90 mM), oligomycin (10 μM), and 2-deoxyglucose (Chem Impex, 550 mM) were prepared such that their final working concentrations are 10 mM, 1 μM and 50 mM, respectively, for glycolysis stress test. For mitochondrial stress test, stock solutions of oligomycin (9 µM), FCCP (2.5–10 µM, cell line dependent), rotenone + antimycin A (5.5 µM) were prepared such that their final concentrations were 1 µM, 0.25–1 µM, and 0.5 µM, respectively in the enriched test media. Under glycolytic stress test, the cells were treated with test compounds, followed by the addition of glucose, oligomycin and 2-deoxyglucose at 14.29, 33.8, 53.35, 72.87 minutes, respectively. Under mitochondrial stress test, cells were treated with test compounds, followed by the addition of oligomycin, FCCP, and rotenone + antimycin A, at 14.29, 33.8, 53.35, 72.87 minutes, respectively. Extracellular acidification rates (ECAR) and oxygen consumption rates (OCR) were recorded in real-time for glycolysis and mitochondrial stress tests, respectively, using a Seahorse XFe96® analyzer (Agilent). The parameters related to glycolytic and mitochondrial functions were calculated utilizing the Wave 2.4.0 software (Agilent). ATP rate assay experiment was performed using manufactures (Agilent) protocol, and respective mitochondrial and glycolytic ATP rates were normalized to protein (BCA assay) and calculated using Wave 2.4.0 software.

[2] = tested on: MCT4 expressing MDA-MB-231 cell line; assay: Seahorse XFe96 mitochondrial stress test (OCR); type: cell-based, human; settings: 30 µM, MDA-MB-231, vs DMSO control
Method: as §1, §2

[3] = target: T1, MCT1 (Rattus norvegicus, UniProt P53987); assay: MCT1 inhibition assay via L-[14C]-lactate uptake in RBE4 cells; type: cell-based; settings: L-[14C]-lactate uptake, MCT1 expressing RBE4 cell line; average ± SEM of three separate experiments; read-out: MCT1 IC50
T1 construct: using an L-[^14C]-lactate study on the MCT1 expressing RBE4 cell line; endogenous in cells; host or cells: RBE4 (rat brain endothelial 4) cells, a gift from F. Roux
T1 sequence (P53987 1-494): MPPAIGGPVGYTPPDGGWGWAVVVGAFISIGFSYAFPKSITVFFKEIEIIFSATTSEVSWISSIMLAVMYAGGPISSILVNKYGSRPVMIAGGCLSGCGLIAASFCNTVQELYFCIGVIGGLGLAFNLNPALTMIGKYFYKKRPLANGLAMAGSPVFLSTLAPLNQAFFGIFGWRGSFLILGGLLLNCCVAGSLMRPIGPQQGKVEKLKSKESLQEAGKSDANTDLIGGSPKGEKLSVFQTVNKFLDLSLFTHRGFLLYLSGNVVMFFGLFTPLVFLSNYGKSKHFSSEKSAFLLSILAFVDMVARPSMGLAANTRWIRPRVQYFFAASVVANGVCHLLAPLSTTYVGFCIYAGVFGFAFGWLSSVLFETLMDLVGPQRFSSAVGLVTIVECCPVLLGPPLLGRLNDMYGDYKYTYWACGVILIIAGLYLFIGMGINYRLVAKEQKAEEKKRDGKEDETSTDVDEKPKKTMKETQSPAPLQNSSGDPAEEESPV

[4] = tested on: healthy CD-1 mice; assay: In vivo systemic toxicity study; design: species or system mouse; settings: once daily 25 mg/kg, 16-day treatment period
Method: Based on in vitro cell proliferation inhibition, MCT1 inhibition, and effects on glycolysis/mitochondrial function, we advanced candidate compounds 2a and 2b for translational in vivo safety and efficacy studies. […] Next, an MCT1 expressing WiDr tumor xenograft model was chosen to evaluate the efficacy of 2a and 2b. After tumors were inoculated, they were allowed to reach ~150 mm^3 volume, and mice were randomly divided into three groups. Group-1 was administered 25 mg/kg (i.p.) of compound 2a, group-2 was administered with 25 mg/kg (i.p.) of 2b, and group-3 was designated as control group and given an injection of vehicle. Treatment was continued for 16 days, and tumor volumes were recorded. […] During the two-week treatment period, there was no significant loss of body weights in mice between treated and control groups. […] At the end of the study, all the tumors were resected, and the tumor mass was weighed (Fig. 6D).
Five-week-old healthy CD-1 mice (Charles River) were obtained and acclimatized for one week prior to treatment. Mice (n = 6) were grouped randomly based on average body weight. […] Mice body weights were recorded daily as a proxy for animal health and were also examined for proper activity and grooming patterns. […]

[5] = tested on: MDA-MB-231 cell line; assay: MTT cell proliferation inhibition assay; settings: Homo sapiens, MDA-MB-231, read-out: MTT IC50
Method: Human triple-negative breast cancer MDA-MB-231 cells (ATCC) were grown in DMEM supplemented with 10% FBS (Atlanta Biologicals) and penicillin-streptomycin (50U/ml, 50 µg/ml, Invitrogen). Human colorectal adenocarcinoma WiDr cells (ATCC) were cultured in MEM medium supplemented with 10% FBS and penicillin-streptomycin. […] Murine metastatic breast cancer 4T1 cells were grown in RPMI-1640 supplemented with 10% FBS and penicillin-streptomycin. Human estrogen receptor positive breast cancer MCF7 cells (Masonic Cancer Center, University of Minnesota) were grown in MEM supplemented with 6% FBS, EGF (0.01 µg/ml), NEAA, HDC (1 µg/ml), insulin (10 µg/ml), HEPES (12 mM) and sodium pyruvate (1 mM).
Cell proliferation inhibition was evaluated using 3-(4,5-dimethylthiazol-2-yl)-2,5-diphenyl tetrazolium bromide (MTT) assay as reported previously[19].

SMILES	FCCP induced maximal respiration (OCR) [1]	oxygen consumption for mitochondrial ATP production (OCR) [1]	proton leak (OCR) [1]	spare respiratory capacity (OCR) [1]	FCCP induced maximal respiration (OCR) [2]	oxygen consumption for mitochondrial ATP production (OCR) [2]	proton leak (OCR) [2]	spare respiratory capacity (OCR) [2]	IC50 [3] [µM]	systemic toxicity / tolerability (body weight gains, behavior, grooming) [4]	IC50 [5] [µM]
CC(C)(C)[Si](Oc1ccc(/C=C(\C#N)C(=O)O)cc1)(c1ccccc1)c1ccccc1 [2a]	significantly decreased	significantly decreased	significant increase	significant decrease	significantly decreased	significantly decreased	significant increase	significant decrease	0.408 ± 0.005	well tolerated	93
CC(C)(C)[Si](OCCOc1ccc(/C=C(\C#N)C(=O)O)cc1)(c1ccccc1)c1ccccc1 [2b]	significantly decreased	significantly decreased	significant increase	significant decrease	significantly decreased	significantly decreased	significant increase	significant decrease	0.097 ± 0.007	well tolerated	71 ± 1
